What was measured:
Assay type in all cases: biochemical
S6K = S6K (Homo sapiens, UniProt P23443); test: S6K kinase inhibition, Z'-LYTE FRET assay; details: 100 μM ATP
How it was run: (§1)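 Z'-LYTE FRET format: kinase phosphorylates fluorophore-labelled peptide with ATP, then protease cleaves only non-phosphorylated peptide. Phosphorylation calculated from donor (460 nm)/acceptor (535 nm) emission ratio after 400 nm excitation; IC50 values derived.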

PKA = PKA (Homo sapiens, UniProt P17612); test: PKA kinase inhibition, Z'-LYTE FRET assay
Akt1 = Akt1 (Homo sapiens, UniProt P31749); test: Akt1 kinase inhibition, Z'-LYTE FRET assay; details: 100 μM ATP
Akt1, sequence (P31749 whole entry, species assumed): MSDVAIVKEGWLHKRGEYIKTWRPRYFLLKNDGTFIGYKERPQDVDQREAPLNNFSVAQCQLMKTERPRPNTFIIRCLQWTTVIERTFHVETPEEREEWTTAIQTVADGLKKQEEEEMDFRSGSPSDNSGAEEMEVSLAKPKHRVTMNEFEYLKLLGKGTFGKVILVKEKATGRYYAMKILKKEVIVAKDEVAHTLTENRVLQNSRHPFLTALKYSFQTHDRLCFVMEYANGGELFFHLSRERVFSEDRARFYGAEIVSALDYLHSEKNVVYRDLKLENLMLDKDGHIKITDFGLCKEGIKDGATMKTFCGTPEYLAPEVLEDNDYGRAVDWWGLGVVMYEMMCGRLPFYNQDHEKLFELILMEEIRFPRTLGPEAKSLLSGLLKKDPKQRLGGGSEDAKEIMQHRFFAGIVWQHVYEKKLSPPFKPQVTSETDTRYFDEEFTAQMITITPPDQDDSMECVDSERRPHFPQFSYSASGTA
How it was run: as §1

PDK-1 = biological target: T1, PDK-1 (Homo sapiens, UniProt O15530); test: PDK-1 kinase inhibition ELISA assay (phosphorylation of His6-tagged SGK1 S422D by PDK-1); details: PDK-1 ELISA, Table 11; read-out: Average IC50
T1 sequence (O15530 1-556): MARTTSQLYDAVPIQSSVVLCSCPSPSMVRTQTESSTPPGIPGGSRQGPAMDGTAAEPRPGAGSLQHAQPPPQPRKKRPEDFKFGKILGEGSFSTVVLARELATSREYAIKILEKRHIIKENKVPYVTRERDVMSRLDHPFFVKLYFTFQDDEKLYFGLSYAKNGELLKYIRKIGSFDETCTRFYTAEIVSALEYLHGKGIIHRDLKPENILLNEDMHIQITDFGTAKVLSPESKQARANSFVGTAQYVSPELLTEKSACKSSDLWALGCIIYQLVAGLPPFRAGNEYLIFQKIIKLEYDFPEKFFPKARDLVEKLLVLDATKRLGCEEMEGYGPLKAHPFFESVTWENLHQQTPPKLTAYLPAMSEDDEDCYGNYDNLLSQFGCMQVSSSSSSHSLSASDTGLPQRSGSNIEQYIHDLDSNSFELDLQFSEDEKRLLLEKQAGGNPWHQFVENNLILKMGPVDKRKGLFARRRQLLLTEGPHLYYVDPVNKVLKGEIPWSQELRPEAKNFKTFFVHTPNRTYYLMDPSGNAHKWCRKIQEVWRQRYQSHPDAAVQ

[1] = biological target: T2, human PKCθ full length enzyme (Homo sapiens, UniProt Q04759); test: PKCθ kinase inhibition, IMAP fluorescence polarization assay; details: 6 μM ATP
T2 construct: human PKCθ full length enzyme; purchased Panvera, Madison, Wis., now Invitrogen, Carlsbad, Calif; P2996
T2 sequence (Q04759 whole entry): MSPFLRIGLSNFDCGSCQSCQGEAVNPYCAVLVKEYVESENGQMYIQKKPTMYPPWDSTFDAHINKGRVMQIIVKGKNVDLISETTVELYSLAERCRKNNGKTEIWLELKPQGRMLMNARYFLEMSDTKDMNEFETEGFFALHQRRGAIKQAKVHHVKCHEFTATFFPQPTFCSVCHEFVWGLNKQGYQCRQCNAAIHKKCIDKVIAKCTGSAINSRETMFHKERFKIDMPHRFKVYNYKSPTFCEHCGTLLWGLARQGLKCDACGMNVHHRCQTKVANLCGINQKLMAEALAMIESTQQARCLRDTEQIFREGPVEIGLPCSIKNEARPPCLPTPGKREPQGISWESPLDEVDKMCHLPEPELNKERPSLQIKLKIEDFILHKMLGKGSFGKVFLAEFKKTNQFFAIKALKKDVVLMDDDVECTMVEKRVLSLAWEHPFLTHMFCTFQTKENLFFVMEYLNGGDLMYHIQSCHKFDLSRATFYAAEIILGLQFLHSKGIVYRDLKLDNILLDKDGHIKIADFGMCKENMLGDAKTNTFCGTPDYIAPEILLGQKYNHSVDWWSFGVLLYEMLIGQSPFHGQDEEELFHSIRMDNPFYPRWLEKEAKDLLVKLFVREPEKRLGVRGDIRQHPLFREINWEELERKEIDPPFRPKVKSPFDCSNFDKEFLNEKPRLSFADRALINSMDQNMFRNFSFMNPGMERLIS
Excerpt: The ability of illustrative Benzo[c][2,7]naphthyridine Derivatives to inhibit PKCθ can be determined using an IMAP Assay (Molecular Devices Corporation, Sunnyvale, Calif.). The materials used include the following: human PKCθ full length enzyme (Panvera, Madison, Wis., now Invitrogen, Carlsbad, Calif., Cat. No. P2996); substrate peptide: 5FAM-[…]-OH (Molecular Devices, Cat. No. RP7032); ATP (Sigma-Aldrich, St. Louis, Mo., Sigma Cat. No. A2383); DTT (e.g., Pierce, now Fisher Scientific, Waltham, Mass., Pierce Cat. No. 20291); 5× kinase reaction buffer (Molecular Devices, Cat. No. R7209); 5× binding buffer A (Molecular Devices, Cat. No. R7282), 5× binding buffer B (Molecular Devices, Cat. No. R7209); IMAP Beads (Molecular Devices, Cat. No. R7284); and 384-well plates (Corning Costar, Acton, Mass., Cat. No. 3710). The reaction buffer is prepared by diluting the 5× stock reaction buffer and adding DTT to obtain a concentration of 3.0 mM. The binding buffer is prepared by diluting the 5× binding buffer A. A master mix solution is prepared using a 90% dilution of the reaction buffer containing 2×ATP (12 μM) and 2× peptide (200 nM). […] The final concentration of compound is 2× and 10% DMSO. DMSO is added to the rest of the master mix to increase the concentration to 10%. 10 μl of the master mix containing 10% DMSO is added to the rest of the wells on the plate except the 2nd column. 20 μl is transferred from the first column to the 2nd column. The compounds are serially diluted in 2:1 ratio starting from the 2nd column. A 2× (2 nM) PKCθ solution is made in the reaction buffer. 10 μl of the PKCθ solution is added to every well to achieve these final concentrations: PKCθ—1 nM; ATP—6 μM; peptide—100 nM; DMSO—5%. Samples are incubated for 25 minutes at room temperature. The binding reagent is prepared by diluting the beads in 1× binding buffer to 800:1. 50 μl of the binding reagent is added to every well and incubated for 20 minutes. Fluorescence polarization is measured using EnVision™ 2100 multilabel reader (PerkinElmer Life Sciences, Wellesley, Mass.). Wells with no ATPs and wells with no enzymes are used as controls.

S6K, sequence (P23443 whole entry): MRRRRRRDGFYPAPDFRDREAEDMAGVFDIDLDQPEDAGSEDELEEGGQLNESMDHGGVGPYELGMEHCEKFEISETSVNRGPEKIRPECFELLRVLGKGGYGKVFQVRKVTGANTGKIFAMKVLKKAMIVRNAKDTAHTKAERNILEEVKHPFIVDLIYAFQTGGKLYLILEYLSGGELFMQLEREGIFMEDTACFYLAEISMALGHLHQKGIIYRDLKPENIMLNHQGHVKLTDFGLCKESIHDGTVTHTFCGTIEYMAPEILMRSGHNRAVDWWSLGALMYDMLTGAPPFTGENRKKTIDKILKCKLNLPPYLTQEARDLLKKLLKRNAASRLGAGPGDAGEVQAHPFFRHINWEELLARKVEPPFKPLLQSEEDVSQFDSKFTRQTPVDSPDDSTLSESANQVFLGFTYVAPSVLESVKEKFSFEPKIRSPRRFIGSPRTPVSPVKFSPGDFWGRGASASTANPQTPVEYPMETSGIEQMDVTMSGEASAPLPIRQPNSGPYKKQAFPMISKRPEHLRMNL

COc1cc2ncc3c(N)nc(-c4cncc(OC[C@@H](N)Cc5ccccc5)c4)cc3c2cc1OC [Ib-62, 2-(5-{[(2S)-2-amino-3-phenylpropyl]oxy}pyridin-3-yl)-8,9-dimethoxybenzo[c]-2,7-naphthyridin-4-amine]
IC50 (S6K): 0.098 to 0.14 µM
IC50 (PKA; 20 μM ATP): 0.023 µM
IC50 (PKA; 100 μM ATP): 0.146 to 0.497 µM
IC50 (Akt1): < 0.16 µM
IC50 (PDK-1): 0.01 µM
IC50 [1]: 0.029 µM

COc1cc2ncc3c(N)nc(-c4cncc(OC[C@H](N)Cc5ccccc5)c4)cc3c2cc1OC [Ib-56, 2-(5-{[(2R)-2-amino-3-phenylpropyl]oxy}pyridin-3-yl)-8,9-dimethoxybenzo[c]-2,7-naphthyridin-4-amine]
IC50 (S6K): 0.088 µM
IC50 (PKA; 20 μM ATP): < 0.16 µM
IC50 (PKA; 100 μM ATP): 0.259 µM
IC50 (Akt1): 0.003 µM
IC50 [1]: 0.004 µM

COCCOc1cc2ncc3c(N)nc(-c4cncc(OC[C@@H](N)Cc5ccccc5)c4)cc3c2cc1OC [Ia-11, 2-(5-{[(2S)-2-amino-3-phenylpropyl]oxy}pyridin-3-yl)-9-methoxy-8-(2-methoxyethoxy)benzo[c]-2,7-naphthyridin-4-amine]
IC50 (S6K): 0.034 µM
IC50 (PKA; 20 μM ATP): 0.038 µM
IC50 (PKA; 100 μM ATP): 0.39 µM
IC50 (Akt1): 0.001 µM
IC50 (PDK-1): 0.012 µM
IC50 [1]: 0.017 µM

COc1cc2ncc3c(N)nc(-c4cncc(O[C@H]5CCNC5)c4)cc3c2cc1OC [Ib-59, 8,9-dimethoxy-2-{5-[(3S)-pyrrolidin-3-yloxy]pyridin-3-yl}benzo[c]-2,7-naphthyridin-4-amine]
IC50 (S6K): 1.24 µM
IC50 (PKA; 20 μM ATP): 2 µM
IC50 (PKA; 100 μM ATP): > 2 µM
IC50 (Akt1): 0.29 µM
IC50 (PDK-1): 0.064 µM
IC50 [1]: 0.592 µM

COc1cc2ncc3c(N)nc(-c4cncc(OC[C@H](N)Cc5c[nH]c6ccccc56)c4)cc3c2cc1OC [Ib-55, 2-(5-{[(2R)-2-amino-3-(1H-indol-3-yl)propyl]oxy}pyridin-3-yl)-8,9-dimethoxybenzo[c]-2,7-naphthyridin-4-amine]
IC50 (S6K): 0.254 µM
IC50 (PKA; 20 μM ATP): < 0.08 µM
IC50 (PKA; 100 μM ATP): 1.32 µM
IC50 (Akt1): 0.018 µM
IC50 (PDK-1): 0.015 µM
IC50 [1]: 0.003 µM

CCOc1cc2ncc3c(N)nc(-n4ccnc4)cc3c2cc1N [Ia-28, 8-Ethoxy-2-(1H-imidazol-1-yl)benzo[c]-2,7-naphthyridine-4,9-diamine]
IC50 (S6K): 1.09 µM
IC50 (PKA; 100 μM ATP): > 2 µM
IC50 (Akt1): 0.36 µM
IC50 (PDK-1): 0.046 µM
IC50 [1]: 0.135 µM

COc1cc2c(cc1OCCN1CCOCC1)ncc1c(N)nc(-n3ccnc3)cc12 [Ia-13, 2-(1H-imidazol-1-yl)-9-methoxy-8-(2-morpholinoethoxy)benzo[c][2,7]naphthyridin-4-amine]
IC50 (S6K): 0.656 µM
IC50 (PKA; 20 μM ATP): > 10 µM
IC50 (PKA; 100 μM ATP): > 2 µM
IC50 (Akt1): 0.07 µM
IC50 (PDK-1): 0.079 µM
IC50 [1]: 0.121 µM

COc1cc2ncc3c(N)nc(-c4cncc(O[C@@H]5CCNC5)c4)cc3c2cc1OC [Ib-58, 8,9-dimethoxy-2-{5-[(3R)-pyrrolidin-3-yloxy]pyridin-3-yl}benzo[c]-2,7-naphthyridin-4-amine]
IC50 (S6K): 0.355 µM
IC50 (PKA; 20 μM ATP): 0.14 µM
IC50 (PKA; 100 μM ATP): 1.53 µM
IC50 (Akt1): 0.06 µM
IC50 (PDK-1): 0.066 µM
IC50 [1]: 0.249 µM

COCCOc1cc2ncc3c(N)nc(-n4ccnc4)cc3c2cc1OC [Ia-48, 2-(1H-imidazol-1-yl)-9-methoxy-8-(2-methoxyethoxy)benzo[c]-2,7-naphthyridin-4-amine]
IC50 (S6K): 1.39 µM
IC50 (PKA; 20 μM ATP): > 20 µM
IC50 (PKA; 100 μM ATP): > 2 µM
IC50 (Akt1): 0.2 µM
IC50 [1]: 0.116 µM

COc1cc2ncc3c(N)nc(-c4cncc(O)c4)cc3c2cc1OC [Ib-57, 5-(4-Amino-8,9-dimethoxybenzo[c]-2,7-naphthyridin-2-yl)pyridin-3-ol]
IC50 (S6K): > 2 µM
IC50 (PKA; 20 μM ATP): > 20 µM
IC50 (PKA; 100 μM ATP): > 2 µM
IC50 (Akt1): 0.3 µM
IC50 (PDK-1): 0.057 µM
IC50 [1]: 0.332 µM

Reference: patent publication US20080293712A1, “Benzo[C][2,7]Naphtyridine Derivatives, Methods of Making Thereof and Methods of Use Thereof” (WYETH, priority 2007, published 2008)
